{"source": "patent US20180296530A1", "about": "“METHOD FOR TREATING ATOPIC DERMATITIS” (priority 2015, published 2018)", "key": {"[1]": {"system": "serum total IgE and allergen-specific IgE", "test": "Clinical trial: serum total and allergen-specific IgE (ImmunoCAP)", "assay_type": "in vivo, human"}, "[2]": {"test": "Clinical trial: adverse events", "assay_type": "in vivo, human", "settings": "oral melatonin 3 mg/d, 4 weeks, children with AD", "procedure": "Visits occurred at the start of the prescreening and on the first and last day of each treatment period, during which AD disease severity was assessed, blood and urine samples were collected, questionnaires evaluating subjective symptoms were filled out, and pill count and adverse events were recorded."}, "serum total IgE [3]": {"system": "serum total IgE", "test": "Example 6: serum IgE in DNCB-induced AD mouse model", "assay_type": "in vivo, Balb/c mice", "procedure": "(§1) Blood and dorsal skin of each mouse were collected on the last day of the experiment (Day 20) and stored at −80° C. until use. Serum IgE levels were measured using the ImmunoCAP fluorescence enzyme immunoassay (Phadia AB, Sweden) according to the manufacturer's instructions. The dorsal skin mRNA expression of the cytokines IL-4, IL-13, and IL-17 were measured by RT-PCR.\n(§2) The protocol for establishing an AD mouse model in this Example was modified from those described previously. Briefly, referring to FIG. 12, DNCB-induced AD mouse model was prepared by the repeated applications of 20 μL of 1% DNCB in acetone/olive oil (4:1) to the outer and inner surfaces of mouse ears and 100 μL of the same solution to the shaved back skin once on days 1 and 4. Mice of Control group were treated with the identical volumes of vehicle.\nThe DNCB-sensitized mice were randomly assigned to one of four groups: DNCB, DNCB+0.1% topical melatonin, DNCB+1% topical melatonin, DNCB+8% topical melatonin. Each group (including Control group) consisted of 3 mice. On days 8 and 11, sensitized mice was challenged by applying 0.2% DNCB to the skin surfaces. For the three groups treated with topical melatonin groups, 0.1 mg of topical melatonin cream was given twice a day from day 1 to day 14. […]\nThe serum IgE levels were measured on the last day of the experiment (Day 15) in the same manner as those described in Example 5."}, "[4]": {"system": "DNCB-induced AD mouse model", "test": "Example 6: dermatitis severity, topical melatonin cream in DNCB-induced AD mouse model", "assay_type": "in vivo, Balb/c mice", "settings": "for clinical score (dermatitis): day 1 to day 14, Day 15, DNCB group 10, Control 0", "procedure": "Macroscopic assessment of the severity of dermatitis was determined by a scoring method as described previously. Briefly, the degree of each sign were scored as 0 (none), 1 (mild), 2 (moderate), and 3 (severe). This scoring was based on the severity of erythema (hemorrhage), edema, excoriation (erosion), and dryness (scaling). The total score (minimum 0 and maximum 12) from the four symptoms of each mouse were taken as the score for that mouse. Ear thickness was measured with a thickness gauge (Digimatic Indicator, Mitsutoyo, Tokyo). This assessment was performed on the last day of the experiment (Day 20) by an investigator who was blind to the grouping of the animals.\nFour- to six-week-old Balb/c mice were maintained under specific pathogen-free conditions. Animals were housed in an air-conditioned animal room (25±1° C.; relative humidity 40±5%) and were fed a laboratory diet and distilled water. Animal care and handling protocols were approved by the Animal Committee of the College of Medicine, Taiwan University, and all procedures were conducted in accordance with the U.S. National Institute of Health guidelines.\nas §2\nThe DNCB-sensitized mice were randomly assigned to one of four groups: DNCB, DNCB+0.1% topical melatonin, DNCB+1% topical melatonin, DNCB+8% topical melatonin. Each group (including Control group) consisted of 3 mice. On days 8 and 11, sensitized mice was challenged by applying 0.2% DNCB to the skin surfaces. For the three groups treated with topical melatonin groups, 0.1 mg of topical melatonin cream was given twice a day from day 1 to day 14. The cream base consisted of a mixture of tefose 63, octyldodecyl myristate, sorbic acid, methyl paraben sodium, ddH2O, and apricot kernel oil. For Control and DNCB groups, 0.1 mg of cream base was given twice a day from day 1 to day 14. This experiment was ended at Day 15.\nThe dermatitis severity of each mouse treated with or without melatonin was evaluated in the same manner as those described in Example 5. This evaluation was performed on the last day of the experiment (Day 15) by an investigator who was blind to the grouping of the animals."}, "serum total IgE [5]": {"system": "serum total IgE", "test": "Example 5: serum IgE in DNCB-induced AD mouse model", "assay_type": "in vivo, Balb/c mice", "settings": "5% melatonin treatment compared with the DNCB-stimulated group, p=0.02, Day 20", "procedure": "as §2, with “FIG. 4,” for “FIG. 12,”, “days 1, 2,” for “days 1”, “and 3.” for “and 4.”\nThe DNCB-sensitized mice were randomly assigned to one of three groups: DNCB (Positive control), DNCB+3% topical melatonin (Treatment: low-dose), DNCB+5% topical melatonin (Treatment: high-dose). Each group (including Control group) consisted of 5 mice. From days 9 to 19, sensitized mice were challenged by applying 0.5% DNCB to the skin surfaces. For the two groups treated with topical melatonin groups, 0.3 mg of topical melatonin ointment (3% or 5% melatonin in Vaseline) was given together with DNCB during the challenge period. […]\nas §1"}}, "note": "Entries after “also recorded” stand apart in the source; their conditions may differ.", "data": [{"smiles": "COc1ccc2[nH]cc(CCNC(C)=O)c2c1", "note": "[Melatonin, melatonin]", "values": [{"measurement": "IgE level, After", "setting": "[1]; after oral melatonin 3 mg/d at bedtime for 4 weeks, mean, serum", "value": 2483.8, "unit": "kU/L"}, {"measurement": "IgE level, Difference", "setting": "[1]; after vs before oral melatonin 3 mg/d, 4 weeks, mean", "value": 108.4, "unit": "kU/L"}, {"measurement": "IgE level, Before", "setting": "[1]; melatonin phase, before treatment, mean, serum", "value": 2337.2, "unit": "kU/L"}, {"measurement": "effect on allergen-specific IgE levels to Derp, Derf, or S aureus enterotoxins A or B", "setting": "[1]; melatonin vs placebo, P>0.05", "value": "no significant difference"}, {"measurement": "effect on total IgE level", "setting": "[1]; melatonin vs placebo, P>0.05", "value": "no significant difference"}, {"measurement": "IgE level, Difference of Treatment Effect From the Linear Mixed-Effects Model, Mean", "setting": "[1]; melatonin vs placebo, adjusted for age and sex", "value": "−113.6", "unit": "kU/L"}, {"measurement": "adverse events", "setting": "[2]", "value": "no adverse event was reported; also recorded: no adverse effect of medication was reported"}, {"measurement": "serum total IgE levels", "setting": "serum total IgE [3]; 8% topical melatonin treatment, FIG. 15", "value": "lowered the total serum IgE most"}, {"measurement": "serum total IgE levels", "setting": "serum total IgE [3]; after topical melatonin treatment (0.1%, 1%, 8%), dose-response relationship, FIG. 15, Day 15", "value": "reduced"}, {"measurement": "clinical score (dermatitis)", "setting": "[4]; 0.1% melatonin cream twice a day", "value": 7}, {"measurement": "gross skin findings", "setting": "[4]; 0.1%, 1%, and 8% topical melatonin, 8% improved the skin severity most", "value": "improved the gross skin findings in a dose-dependent manner"}, {"measurement": "clinical score (dermatitis)", "setting": "[4]; 8% melatonin cream twice a day", "value": 2}, {"measurement": "Ear thickness", "setting": "[4]; after 8% melatonin treatment, FIG. 14", "value": "significantly improved"}, {"measurement": "serum total IgE level", "setting": "serum total IgE [5]", "value": "significantly reduced"}]}]}
